These results are taken from patent US6184231A, “3-substituted-4-arylquinolin-2-one derivatives as potassium channel modulators” (priority 1999, dated 2001).

In one assay the test system is intracavernous pressure (ICP/BP) response. The experiment in a line: in vivo model on erectile function, cavernous nerve stimulation. Further details: species or system rat. To be noted: 0.1-1.0 mg/kg i.v., anesthetized rats. An excerpt:
The in vivo model on erectile function is described fully in the scientific literature [Rehman, J., Chenven, E., Brink, P. Peterson, B., Wolcott, B., Wen, Y. P., Melman, A., Christ, G.: Diminished neurogenic but not pharmacological erections in the 2- to 3-month experimentally diabetic F-344 rat. Am. J. Physiol. 272: H1960-H1971, (1997)]. Briefly, rats (250-600 g) were anesthetized using sodium pentobarbital, the abdomen opened and the cavernous nerve identified. A pressure catheter was placed in the right corpus cavernosum (crus) to measure intracavernous pressure (ICP). A second catheter was introduced into the carotid artery to measure blood pressure. Test compound (0.1, 0.3 and 1 mg/kg iV.) or vehicle (PEG 400) was given via a catheter placed into the jugular vein.
Control intracavernous pressure responses were elicited by electrically stimulating the cavernous nerve via bipolar stimulating electrodes (20 Hz, 0.22 ms pulse width). Stimulus amplitude (0.2-20 mA) was adjusted to produce a submaximal intracavernous pressure response (typically 0.2 or 0.5 mA). A series of control intracavernous pressure responses were then obtained using a constant stimulus amplitude. Test compound or vehicle was then administered (200 μl i.v bolus) and the cavernous nerve was restimulated to evoke a cavernous pressure response at various times post-drug administration. […]
On to `O=c1[nH]c2ccc(C(F)(F)F)cc2c(-c2cc(Cl)ccc2O)c1CCO` [Example 20, 4-(5-Chloro-2-hydroxyphenyl)-3-(2-hydroxyethyl)-6-(trifluoromethyl)-2(1H)-quinolinone], for which the “ICP/BP ratio elicited by sub-maximal stimulation of the cavernous nerve” value is given as “significant increase”.

Another assay has as its system cloned mammalian (mSlo or hSlo) BK channels. The experiment in a line: BK-mediated outward current, two-electrode voltage clamp in Xenopus oocytes. The class given is cell-based. To be noted: at 20 μM; percent increase over BK current in controls; IBTX-sensitive current; at least 5 oocytes. Here is the method:
The ability of compounds described in the present invention to open BK channels and increase whole-cell outward (K^+) BK-mediated currents was assessed under voltage-clamp conditions by determining their ability to increase cloned mammalian (mSlo or hSlo) BK --mediated outward current heterologously expressed in Xenopus oocytes [Butler, A., et al., Science, 261: 221-224 (1993); and Dworetzky, S. I., et al., Mol. Brain Res., 27: 189-193 (1994)]. The two BK constructs employed represent nearly structurally identical homologous proteins, and have proven to be pharmacologically identical in our tests. To isolate BK current from native (background, non-BK) current, the specific and potent BK channel-blocking toxin iberiotoxin (IBTX) [Galvez, A., et al., J. Biol. Chem., 265: 11083-11090 (1990)] was employed at a supramaximal concentration (50 nM). The relative contribution of BK channels current to total outward current was determined by subtraction of the current remaining in the presence of IBTX (non-BK current) from the current profiles obtained in all other experimental conditions (control, drug, and wash). […] All compounds were tested in at least 5 oocytes and are reported at the single concentration of 20 μM; the effect of the selected compounds of Formula I on BK current was expressed as the percent of control IBTX-sensitive current and is listed in Table I. Recordings were accomplished using standard two-electrode voltage clamp techniques [Stuhmer, W., et al., Methods in Enzymology, Vol. 207: 319-339 (1992)]; voltage-clamp protocols consisted of 500-750 ms duration step depolarizations from a holding potential of -60 mV to +140 mV in 20 mV steps. The experimental media (modified Barth's solution) consisted of (in mM): NaCl (88), NaHCO3 (2.4), KCl (1.0), HEPES (10), MgSO4 (0.82), Ca(NO3)2 (0.33), CaCl2 (0.41); pH 7.5.
A general note: Two-electrode voltage clamp is typically applied to oocytes expressing channels or transporters.
Regarding `COc1ccc(Cl)cc1-c1c(CO)c(=O)[nH]c2cc(C(F)(F)F)ccc12` [Example 3, 4-(5-Chloro-2-methoxyphenyl)-3-(hydroxymethyl)-7-(trifluoromethyl)-2(1H)-quinolinone], the “BK Current” value is “+ (+ = 100-200%)”. With `COc1ccc(Cl)cc1-c1c(C=O)c(=O)[nH]c2ccc(C(F)(F)F)cc12` [Example 4, 4-(5-Chloro-2-methoxyphenyl)-1,2-dihydro-2-oxo-6-(trifluoromethyl)-3-quinolinecarboxaldehyde], the “BK Current” value is reported as “+ (+ = 100-200%)”. The same measure, in the same setting: with `COc1ccc(Cl)cc1-c1c(CCCO)c(=O)[nH]c2ccc(C(F)(F)F)cc12` [Example 8, 4-(5-Chloro-2-methoxyphenyl)-3-(3-hydroxypropyl)-6-(trifluoromethyl)-2(1H)-quinolinone] the entry was “++ (++ = >200%)”.

Regarding `O=c1[nH]c2ccc(C(F)(F)F)cc2c(-c2cc(Cl)ccc2O)c1CO` [Example 9, 4-(5-Chloro-2-hydroxyphenyl)-3-(hydroxymethyl)-6-(trifluoromethyl)-2(1H)-quinolinone], the “BK Current” value is reported as “++ (++ = >200%)”. With `O=c1[nH]c2ccc(C(F)(F)F)cc2c(-c2cc(Cl)ccc2O)c1/C=C(\F)CO` [Example 17, (Z)-4-(5-Chloro-2-hydroxyphenyl)-3-(2-fluoro-3-hydroxy-1-propenyl)-6-(trifluoromethyl)-2(1H)-quinolinone], the “BK Current” value is recorded as “+ (+ = 100-200%)”.

In the case of `COc1ccc(Cl)cc1-c1c(/C=C(/F)CO)c(=O)[nH]c2ccc(C(F)(F)F)cc12` [Example 18, (E)-4-(5-Chloro-2-methoxyphenyl)-3-(2-fluoro-3-hydroxy-1-propenyl)-6-(trifluoromethyl)-2(1H)-quinolinone], the “BK Current” value was “+ (+ = 100-200%)”.

As for `O=c1[nH]c2ccc(C(F)(F)F)cc2c(-c2cc(Cl)ccc2O)c1CCO` [Example 20, 4-(5-Chloro-2-hydroxyphenyl)-3-(2-hydroxyethyl)-6-(trifluoromethyl)-2(1H)-quinolinone], the “BK Current” value was “++ (++ = >200%)”. Take `COc1ccc(Cl)cc1-c1c(CCO)c(=O)[nH]c2ccc(C(F)(F)F)cc12` [Example 21, 4-(5-Chloro-2-methoxyphenyl)-3-(2-hydroxyethyl)-6-trifluoromethyl-2(1H)-quinolinone]: the “BK Current” value is on record as “++ (++ = >200%)”.

On to `O=c1[nH]c2ccc(C(F)(F)F)cc2c(-c2cc(Cl)ccc2O)c1Cc1ccc(O)cc1` [Example 30, 4-(5-Chloro-2-hydroxyphenyl)-3-[(4-hydroxyphenyl)methyl]-6-(trifluoromethyl)-2(1H)-quinolinone], for which the “BK Current” value is on record as “++ (++ = >200%)”. On to `Nc1ccc(-c2c(-c3cc(Cl)ccc3O)c3cc(C(F)(F)F)ccc3[nH]c2=O)cc1` [Example 32, 4-(5-Chloro-2-hydroxyphenyl)-3-(4-aminophenyl)-6-(trifluoromethyl)-2(1H)-quinolinone], for which the “BK Current” value is reported as “++ (++ = >200%)”. The same measure, in the same setting: with `Cc1c(-c2cc(Cl)ccc2O)c2cc(C(F)(F)F)ccc2[nH]c1=O` [Example 34, 4-(5-Chloro-2-hydroxyphenyl)-3-methyl-6-(trifluoromethyl)-2(1H)-quinolinone] the entry was “++ (++ = >200%)”. On the same count and under the same terms, with `COc1ccc(Cl)cc1-c1c(C=NO)c(=O)[nH]c2ccc(C(F)(F)F)cc12` [Example 39, 4-(5-Chloro-2-methoxyphenyl)-1,2-dihydro-2-oxo-6-(trifluoromethyl)-3-quinolinecarboxaldehyde oxime] the entry was “++ (++ = >200%)”.

For the next assay, the system named is cortical infarct volume. The experiment in a line: permanent focal ischemia, middle cerebral artery occlusion (MCAO) model. It is filed as in vivo, spontaneously hypertensive rat. The conditions noted are these: 0.003 mg/kg i.v. single bolus 2 hours after MCAO; infarct measured 24 hours after MCAO; vs vehicle-treated control. An excerpt:
To determine the ability of these compounds to reduce cell loss resulting from neuronal ischemia, a standard rodent model of permanent focal ischemia, involving occlusion of the middle cerebral artery in the spontaneously hypertensive rat (middle cerebral artery occlusion (MCAO) model) was employed [Tamura, A., et al., Journal of Cerebral Blood Flow and Metabolism, Volume 1, 53-60, (1981)].
Selected compounds have been evaluated in the focal stroke model involving permanent MCAO in the spontaneously hypertensive rat. This procedure results in a reliably large neocortical infarct volume that is measured by means of vital dye exclusion in serial slices through the brain 24 hours after MCAO. In the present test, compounds were administered using an intravenous route of administration at 2 hours after occlusion.
With `COc1ccc(Cl)cc1-c1c(CCO)c(=O)[nH]c2ccc(C(F)(F)F)cc12` [Example 21, 4-(5-Chloro-2-methoxyphenyl)-3-(2-hydroxyethyl)-6-trifluoromethyl-2(1H)-quinolinone], the “reduction of cortical infarct volume” value is “about 25%”.
